What all share (type): biochemical
The target of assay [1] is T1, human JAK1 (a.a. 837-1142) (Homo sapiens, UniProt P23458).
T1 construct: human JAK1 (a.a. 837-1142); His tag (N); made in house; host or cells: insect cells (baculovirus)
Put plainly: In vitro JAK kinase assay (HTRF, phosphorylation of a biotinylated peptide), JAK1. To be noted: read-out: JAK1 IC50. In short, it runs like this: (§1)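 Phosphorylation of a biotinylated peptide by the JAK kinase domain, detected by HTRF with Eu-Py20 and SA-APC. ATP was 90 μM for JAK1, 30 μM for JAK2 and 3 μM for JAK3. Reactions ran 1 h at room temperature and were stopped with EDTA, followed by 40 min antibody binding.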

Assay [2] has as its target T2, Recombinant Human Anaplastic Lymphoma Kinase (Homo sapiens, UniProt Q9UM73).
T2 construct: purchased Invitrogen, Carlsbad, Calif
Put plainly: ALK HTRF kinase assay. In short, it runs like this: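 Recombinant human ALK with biotinylated peptide substrate; phosphorylation detected by HTRF using Eu-labelled anti-phosphotyrosine antibody and streptavidin-allophycocyanin. IC50 from a sigmoidal fit with Hill slope.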
For orientation: TR-FRET usually uses a lanthanide donor and a delayed reading to cut background.

The target of a further assay is TYK2 (Homo sapiens, UniProt P29597). The assay is described as follows: TYK2 kinase inhibition (Table A1).
For assay [3], the target named is T3, human JAK2 (a.a. 828-1132) (Homo sapiens, UniProt O60674).
T3 construct: JAK2 (a.a. 828-1132); His tag (N); made in house; host or cells: insect cells (baculovirus)
The assay is described as follows: In vitro JAK kinase assay (HTRF, phosphorylation of a biotinylated peptide), JAK2. The essentials:
as §1

Assay [4] deals with T4, human JAK3 (a.a. 781-1124) (Homo sapiens, UniProt P52333).
T4 construct: JAK3 (a.a. 781-1124); His tag (N); made in house; host or cells: insect cells (baculovirus)
Put plainly: In vitro JAK kinase assay (HTRF, phosphorylation of a biotinylated peptide), JAK3. In short, it runs like this: as §1

Setting [5] is: method AA1 (90 μM ATP) or AA2 (1000 μM ATP), not stated per value.
[6] abbreviates: compound at 500 nM or 1 mM, 90 μM ATP.
Where [7] appears, read: method AA1 (30 μM ATP) or AA2 (1000 μM ATP), not stated per value.
Where [8] appears, read: method AA1 (3 μM ATP) or AA2 (1000 μM ATP), not stated per value.
Setting [9] is: percentage inhibition of the example compound at a concentration of 500 nM or 1 mM (not specified which).
Where [10] appears, read: compound at a concentration of 500 nM or 1 mM (not specified), cells shown as percentage.
The mark [11] stands for this setting: Table B1, cells without percent sign.

Here are results for 14 molecules from US8871753B2, “Macrocyclic compounds and their use as kinase inhibitors” (Incyte Corporation, priority 2008, dated 2014).

As usually defined, the IC50 is the concentration at which inhibition is half-maximal.

Structures can show the parent of a compound that is named as a salt. Where two headings read alike, the source gives them in different places.

T2 sequence (Q9UM73 19-1620): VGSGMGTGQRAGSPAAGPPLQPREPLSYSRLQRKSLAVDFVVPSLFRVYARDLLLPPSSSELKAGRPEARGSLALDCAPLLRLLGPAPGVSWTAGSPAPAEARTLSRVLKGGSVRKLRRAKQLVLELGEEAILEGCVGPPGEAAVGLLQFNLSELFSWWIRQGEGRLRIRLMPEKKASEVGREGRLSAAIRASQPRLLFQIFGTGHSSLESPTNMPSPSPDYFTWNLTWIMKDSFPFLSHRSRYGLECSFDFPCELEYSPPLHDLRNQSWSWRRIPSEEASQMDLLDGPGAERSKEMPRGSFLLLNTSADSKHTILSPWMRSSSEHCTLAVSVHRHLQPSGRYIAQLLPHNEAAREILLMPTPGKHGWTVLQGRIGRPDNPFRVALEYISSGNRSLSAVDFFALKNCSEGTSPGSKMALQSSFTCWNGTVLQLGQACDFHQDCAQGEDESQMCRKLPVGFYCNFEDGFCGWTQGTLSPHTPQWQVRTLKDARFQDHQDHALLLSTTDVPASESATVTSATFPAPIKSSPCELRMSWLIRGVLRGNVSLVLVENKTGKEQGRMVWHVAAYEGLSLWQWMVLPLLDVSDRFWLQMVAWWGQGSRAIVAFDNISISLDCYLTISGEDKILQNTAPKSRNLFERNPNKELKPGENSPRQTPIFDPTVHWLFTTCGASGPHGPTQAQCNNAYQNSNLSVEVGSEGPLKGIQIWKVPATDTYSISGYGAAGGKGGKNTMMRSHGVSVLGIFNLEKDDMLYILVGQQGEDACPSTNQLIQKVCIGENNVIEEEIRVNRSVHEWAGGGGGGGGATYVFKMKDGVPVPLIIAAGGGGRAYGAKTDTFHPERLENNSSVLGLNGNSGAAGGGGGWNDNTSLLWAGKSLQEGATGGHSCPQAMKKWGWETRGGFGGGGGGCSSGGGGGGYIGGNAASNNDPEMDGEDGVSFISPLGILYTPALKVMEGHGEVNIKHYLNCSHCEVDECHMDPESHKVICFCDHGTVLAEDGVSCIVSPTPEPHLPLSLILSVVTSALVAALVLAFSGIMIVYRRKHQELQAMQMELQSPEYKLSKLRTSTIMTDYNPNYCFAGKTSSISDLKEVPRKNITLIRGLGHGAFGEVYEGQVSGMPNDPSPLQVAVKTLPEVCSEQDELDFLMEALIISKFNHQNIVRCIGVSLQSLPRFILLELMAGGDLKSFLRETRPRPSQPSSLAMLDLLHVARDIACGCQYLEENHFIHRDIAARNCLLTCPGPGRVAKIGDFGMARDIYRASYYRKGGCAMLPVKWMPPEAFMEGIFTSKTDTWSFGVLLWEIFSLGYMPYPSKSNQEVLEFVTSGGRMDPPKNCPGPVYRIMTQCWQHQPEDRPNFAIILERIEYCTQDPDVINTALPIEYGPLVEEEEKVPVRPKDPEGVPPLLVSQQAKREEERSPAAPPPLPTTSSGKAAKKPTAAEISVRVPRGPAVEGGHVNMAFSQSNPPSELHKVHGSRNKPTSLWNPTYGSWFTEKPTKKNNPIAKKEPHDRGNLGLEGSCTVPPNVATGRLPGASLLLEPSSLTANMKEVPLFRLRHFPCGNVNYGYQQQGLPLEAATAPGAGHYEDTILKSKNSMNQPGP
T3 sequence (O60674 828-1132): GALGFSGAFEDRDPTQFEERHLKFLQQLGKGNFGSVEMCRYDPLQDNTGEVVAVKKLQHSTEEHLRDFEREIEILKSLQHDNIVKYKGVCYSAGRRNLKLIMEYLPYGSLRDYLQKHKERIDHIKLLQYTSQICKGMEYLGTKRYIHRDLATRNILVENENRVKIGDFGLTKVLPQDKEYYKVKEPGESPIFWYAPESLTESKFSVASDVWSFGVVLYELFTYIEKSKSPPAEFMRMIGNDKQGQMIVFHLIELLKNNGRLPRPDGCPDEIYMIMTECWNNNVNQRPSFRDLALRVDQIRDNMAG
T1 sequence (P23458 849-1154): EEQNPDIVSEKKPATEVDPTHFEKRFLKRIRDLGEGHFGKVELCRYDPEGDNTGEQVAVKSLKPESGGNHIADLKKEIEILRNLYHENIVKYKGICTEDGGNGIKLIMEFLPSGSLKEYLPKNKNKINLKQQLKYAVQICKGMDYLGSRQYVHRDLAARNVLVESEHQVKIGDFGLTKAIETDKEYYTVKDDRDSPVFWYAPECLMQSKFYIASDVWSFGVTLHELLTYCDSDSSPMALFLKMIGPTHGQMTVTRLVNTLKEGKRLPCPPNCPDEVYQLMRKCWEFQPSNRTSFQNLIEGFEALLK
TYK2, sequence (P29597 whole entry): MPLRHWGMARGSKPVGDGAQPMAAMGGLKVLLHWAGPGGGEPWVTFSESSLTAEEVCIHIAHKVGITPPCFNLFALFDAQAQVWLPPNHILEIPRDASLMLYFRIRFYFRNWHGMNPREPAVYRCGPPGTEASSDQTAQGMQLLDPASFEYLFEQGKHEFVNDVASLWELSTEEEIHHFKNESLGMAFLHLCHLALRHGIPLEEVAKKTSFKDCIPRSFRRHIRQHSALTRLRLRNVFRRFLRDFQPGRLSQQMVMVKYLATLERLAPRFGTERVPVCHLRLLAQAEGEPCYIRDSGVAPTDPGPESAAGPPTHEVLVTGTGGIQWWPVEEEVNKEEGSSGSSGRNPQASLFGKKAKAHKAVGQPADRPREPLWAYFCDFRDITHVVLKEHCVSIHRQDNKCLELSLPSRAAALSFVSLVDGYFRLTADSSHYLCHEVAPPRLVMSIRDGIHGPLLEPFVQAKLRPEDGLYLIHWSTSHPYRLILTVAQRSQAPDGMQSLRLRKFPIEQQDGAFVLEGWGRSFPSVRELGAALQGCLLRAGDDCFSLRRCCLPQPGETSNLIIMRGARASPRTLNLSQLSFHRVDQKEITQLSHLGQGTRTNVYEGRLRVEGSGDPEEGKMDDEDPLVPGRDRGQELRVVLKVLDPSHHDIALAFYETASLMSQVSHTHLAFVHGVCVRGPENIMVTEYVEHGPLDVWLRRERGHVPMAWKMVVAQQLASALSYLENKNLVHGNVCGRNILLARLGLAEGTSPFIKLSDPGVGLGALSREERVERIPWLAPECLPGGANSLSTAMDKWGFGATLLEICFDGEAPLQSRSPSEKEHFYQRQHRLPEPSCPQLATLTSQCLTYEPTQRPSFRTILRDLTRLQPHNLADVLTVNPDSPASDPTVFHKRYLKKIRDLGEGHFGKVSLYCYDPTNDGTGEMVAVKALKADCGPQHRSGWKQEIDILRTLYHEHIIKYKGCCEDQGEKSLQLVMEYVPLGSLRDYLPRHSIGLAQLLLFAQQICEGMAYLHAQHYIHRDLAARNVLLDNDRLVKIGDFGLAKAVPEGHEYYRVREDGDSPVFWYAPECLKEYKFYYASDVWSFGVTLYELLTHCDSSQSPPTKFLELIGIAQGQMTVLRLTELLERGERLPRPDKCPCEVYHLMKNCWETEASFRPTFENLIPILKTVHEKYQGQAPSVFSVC
T4 sequence (P52333 781-1124): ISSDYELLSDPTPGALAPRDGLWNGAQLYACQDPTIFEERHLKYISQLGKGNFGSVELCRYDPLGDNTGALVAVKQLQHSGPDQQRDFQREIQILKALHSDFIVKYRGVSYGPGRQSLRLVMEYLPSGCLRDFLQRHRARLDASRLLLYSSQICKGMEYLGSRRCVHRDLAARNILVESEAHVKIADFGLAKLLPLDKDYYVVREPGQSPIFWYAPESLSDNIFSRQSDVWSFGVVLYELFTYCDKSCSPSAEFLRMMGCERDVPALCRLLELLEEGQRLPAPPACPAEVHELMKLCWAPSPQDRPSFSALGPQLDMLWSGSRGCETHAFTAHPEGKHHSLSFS

Consider `O=C(CC1CCN(C(=O)Nc2ccccc2F)CC1)Nc1ccc2cc1CCc1cncc(c1)Nc1ncc(Cl)c(n1)N2` [Example A146, 4-(2-{[6-Chloro-2,4,8,18,22-pentaazatetracyclo[14.3.1.1(3,7).1(9,13)]docosa-1(20),3(22),4,6,9(21),10,12,16,18-nonaen-12-yl]amino}-2-oxoethyl)-N-(2-fluorophenyl)piperidine-1-carboxamide bis(trifluoroacetate)], for which the IC50 is 0.9 nM in assay [1] (setting [5]), 7.1 nM at TYK2, 3.6 nM in assay [3] (setting [7]) and > 100 nM in assay [4] (setting [8]). Also, the “ALK % of inhibition at a concentration of 500 nM or 1 mM” value (“ALK % of inhibition” below) in assay [2] (setting [6]) was 34%.
Regarding `N#CNC(=O)Nc1ccc2cc1CCc1cccc(c1)Nc1ncc(Cl)c(n1)N2` [Example B323, N-[6-chloro-2,4,8,22-tetraazatetracyclo[14.3.1.1(3,7).1(9,13)]docosa-1(20),3(22),4,6,9(21),10,12,16,18-nonaen-12-yl]-N′-cyanourea trifluoroacetate], the IC50 in assay [1] (Table B1) was 12 nM; on TYK2 (Table B1), 0.89 nM; in assay [3] (Table B1), 14 nM; in assay [4] (Table B1) it was 2.1 nM. Besides, the “ALK % of inhibition” value in assay [2] (setting [9]) is given as 20%.
In the same order, the values of `Clc1cnc2nc1Nc1ccc(-c3cn[nH]c3)c(c1)CCc1cncc(c1)N2` [Example B350, 6-Chloro-12-(1H-pyrazol-4-yl)-2,4,8,18,22-pentaazatetracyclo[14.3.1.1(3,7).1(9,13)]docosa-1(20),3(22),4,6,9(21),10,12,16,18-nonaene tris(trifluoroacetate)] are 90 nM, 244 nM, 66 nM, > 400 nM and 58%.
As to `N#Cc1ccc(C(=O)N2CCC(CC(=O)Nc3ccc4cc3CCc3cccc(c3)Nc3ncc(Cl)c(n3)N4)CC2)cc1` [Example A186, N-[6-Chloro-2,4,8,22-tetraazatetracyclo[14.3.1.1(3,7).1(9,13)]docosa-1(20),3(22),4,6,9(21),10,12,16,18-nonaen-12-yl]-2-[1-(4-cyanobenzoyl)piperidin-4-yl]acetamide trifluoroacetate], the IC50 is 58 nM in assay [1] (setting [5]), > 200 nM at TYK2, 185 nM in assay [3] (setting [7]) and > 200 nM in assay [4] (setting [8]). In addition, the “ALK % of inhibition” value in assay [2] (setting [6]) came to 38%.
`O=C(Nc1ccccn1)Nc1ccc2cc1CCc1cccc(c1)Nc1ncc(Cl)c(n1)N2` [Example B253, N-[6-Chloro-2,4,8,22-tetraazatetracyclo[14.3.1.1(3,7).1(9,13)]docosa-1(20),3(22),4,6,9(21),10,12,16,18-nonaen-12-yl]-N′-pyridin-2-ylurea bis(trifluoroacetate)]: the IC50 in assay [1] (Table B1) amounted to 90 nM; at TYK2 (Table B1), 173 nM; in assay [3] (Table B1), 72 nM; in assay [4] (Table B1), 695 nM. Besides, the “ALK % of inhibition” value in assay [2] (setting [10]) amounted to 4.9%.
With `N#Cc1ccccc1NC(=O)N1CCC(CC(=O)Nc2ccc3cc2CCc2cncc(c2)Nc2ncc(Cl)c(n2)N3)CC1` [Example A141, 4-(2-{[6-Chloro-2,4,8,18,22-pentaazatetracyclo[14.3.1.1(3,7).1(9,13)]docosa-1(20),3(22),4,6,9(21),10,12,16,18-nonaen-12-yl]amino}-2-oxoethyl)-N-(2-cyanophenyl)piperidine-1-carboxamide bis(trifluoroacetate)], the IC50 in assay [1] (setting [5]) was 3.5 nM; against TYK2, 13 nM; in assay [3] (setting [7]), 12 nM; in assay [4] (setting [8]) it was > 100 nM. Also, the “ALK % of inhibition” value in assay [2] (setting [6]) amounted to 19%.
Taken in the same sequence, the figures for `Cc1ccc(NC(=O)N2CCC(CC(=O)Nc3ccc4cc3CCc3cncc(c3)Nc3ncc(Cl)c(n3)N4)CC2)cc1` [Example A151, 4-(2-{[6-Chloro-2,4,8,18,22-pentaazatetracyclo[14.3.1.1(3,7).1(9,13)]docosa-1(20),3(22),4,6,9(21),10,12,16,18-nonaen-12-yl]amino}-2-oxoethyl)-N-(4-methylphenyl)piperidine-1-carboxamide bis(trifluoroacetate)] were 0.3 nM, 3.8 nM, 1.4 nM, > 100 nM and 45%.
Consider `COc1ccccc1C(=O)Nc1ccc2cc1CCc1cccc(c1)Nc1ncc(Cl)c(n1)N2` [Example B36, N-[6-Chloro-2,4,8,22-tetraazatetracyclo[14.3.1.1(3,7).1(9,13)]docosa-1(20), 3(22),4,6,9(21),10,12,16,18-nonaen-12-yl]-2-methoxybenzamide trifluoroacetate], for which the IC50 is 13 nM in assay [1] (Table B1); > 1000 nM in assay [2] (setting [11]); 21 nM against TYK2 (Table B1); 7.7 nM in assay [3] (Table B1); 42 nM in assay [4] (Table B1).
Turning to `O=C(Nc1ccc2cc1CCc1cccc(c1)Nc1ncc(Cl)c(n1)N2)c1ccc(Cl)nc1` [Example B69, 6-Chloro-N-[6-chloro-2,4,8,22-tetraazatetracyclo[14.3.1.1(3,7).1(9,13)]docosa-1(20),3(22),4,6,9(21),10,12,16,18-nonaen-12-yl]nicotinamide bis(trifluoroacetate)], the IC50 was 0.45 nM in assay [1] (Table B1), 2.3 nM against TYK2 (Table B1), 0.6 nM in assay [3] (Table B1) and 3.6 nM in assay [4] (Table B1). Also, the “ALK % of inhibition” value in assay [2] (setting [10]) is 68%.
For `O=C(NCc1ccccc1)Nc1cc2cc(c1)OCCSc1cccc(c1)Nc1nc(ncc1Cl)N2` [Example D66, N-Benzyl-N′-[6-chloro-17-oxa-14-thia-2,4,8,24-tetraazatetracyclo[16.3.1.1(3,7).1(9,13)]tetracosa-1(22),3(24),4,6,9(23),10,12,18,20-nonaen-20-yl]urea trifluoroacetate], the IC50 in assay [1] (Table D1) is 7.3 nM; in assay [2] (Table D1, 90 μM ATP) it was 770 nM; against TYK2 (Table D1), 3.4 nM; in assay [3] (Table D1), 3 nM; in assay [4] (Table D1), 9.6 nM.
Consider `Cn1cncc1C(=O)Nc1cc2cc(c1)Nc1nc(ncc1Cl)Nc1cccc(c1)CC2` [Example B208, N-[6-Chloro-2,4,8,22-tetraazatetracyclo[14.3.1.1(3,7).1(9,13)]docosa-1(20),3(22),4,6,9(21),10,12,16,18-nonaen-11-yl]-1-methyl-1H-imidazole-5-carboxamide trifluoroacetate], for which the IC50 is 209 nM in assay [1] (Table B1); > 1000 nM in assay [2] (setting [11]); 150 nM against TYK2 (Table B1); 57 nM in assay [3] (Table B1); 84 nM in assay [4] (Table B1).
`Clc1cnc2nc1Nc1cccc(c1)SCCc1cccc(c1)N2` [Example D18, 6-Chloro-14-thia-2,4,8,23-tetraazatetracyclo[15.3.1.1(3,7).1(9,13)]tricosa-1(21),3(23),4,6,9(22),10,12,17,19-nonaene trifluoroacetate]: the IC50 in assay [1] (Table D1) was 5.4 nM; in assay [2] (Table D1, 90 μM ATP), 327 nM; against TYK2 (Table D1), 19 nM; in assay [3] (Table D1), 6.6 nM; in assay [4] (Table D1), 24 nM.
Consider `O=C(Nc1ccc2cc1CCc1cccc(c1)Nc1ncc(Cl)c(n1)N2)C1CCN(C(=O)NC2CCCC2)CC1` [Example A61, N(4)-[6-Chloro-2,4,8,22-tetraazatetracyclo[14.3.1.1(3,7).1(9,13)]docosa-1(20),3(22),4,6,9(21),10,12,16,18-nonaen-12-yl]-N(1)-cyclopentylpiperidine-1,4-dicarboxamide trifluoroacetate], for which the IC50 in assay [1] (setting [5]) is 29 nM; on TYK2 it was 22 nM; in assay [3] (setting [7]) it was 11 nM; in assay [4] (setting [8]) it was 16 nM. Further, the “ALK % of inhibition” value in assay [2] (setting [6]) came to 41%.
Turning to `COc1cccc(NC(=O)N2CCC(CC(=O)Nc3ccc4cc3CCc3cncc(c3)Nc3ncc(Cl)c(n3)N4)CC2)c1` [Example A153, 4-(2-{[6-chloro-2,4,8,18,22-pentaazatetracyclo[14.3.1.1(3,7).1(9,13)]docosa-1(20),3(22),4,6,9(21),10,12,16,18-nonaen-12-yl]amino}-2-oxoethyl)-N-(3-methoxyphenyl)piperidine-1-carboxamide bis(trifluoroacetate)], the IC50 in assay [1] (setting [5]) is 0.5 nM; against TYK2, 5.7 nM; in assay [3] (setting [7]), 1.1 nM; in assay [4] (setting [8]), > 100 nM. Moreover, in assay [2] (setting [6]), the “ALK % of inhibition” value is recorded as 52%.
